Experiments:
[1] = from prior patents / known; cited from earlier work
in vivo = settings: mouse, ip

| SMILES | CNS effect reported in prior publications [1] | LD50 (in vivo) |
| --- | --- | --- |
| O=C1CC(c2ccc(Cl)cc2)CN1 (stereo not drawn) [4-(4-chlorophenyl)-pyrrolidin-2-one] | anticonvulsive effect | – |
| CCCC(CCC)C(=O)O [Ca-Valproate] | – | 455 mg/kg |
| CCCC(CCC)C(=O)N1CCCC1=O [N-dipropylacetylpyrrolidin-2-one] | nootropic effects | – |
| NC(=O)CN1CCCC1=O [Piracetam] | – | > 2000 mg/kg |
| NC(=O)N1c2ccccc2C=Cc2ccccc21 [carbamazepine] | nootropic effects | – |
| CCCC(CCC)C(=O)N1CC(c2ccccc2)CC1=O (stereo not drawn) [compound 1] | – | 1630 mg/kg |
| CCCC(CCC)C(=O)N1CC(c2ccc(Cl)cc2)CC1=O (stereo not drawn) [compound 2] | – | > 2000 mg/kg |
| COc1ccc(C(=O)N2CC(c3ccccc3)CC2=O)cc1 (stereo not drawn) [compound 3] | – | > 2000 mg/kg |
| COc1ccc(C(=O)N2CC(c3ccc(Cl)cc3)CC2=O)cc1 (stereo not drawn) [compound 4] | – | > 2000 mg/kg |
| O=C(COc1ccc(Cl)cc1)N1CC(c2ccc(Cl)cc2)CC1=O (stereo not drawn) [compound 5] | – | > 2000 mg/kg |
| CCOC(=O)C1C(=O)N(C(=O)c2ccc(OC)cc2)CC1c1ccccc1 (stereo not drawn) [compound 6] | – | > 2000 mg/kg |
| CCCC(CCC)C(=O)O [dipropylacetic acid] | nootropic effects | – |

From patent US5441973A, “N-acyl-4-phenyl-pyrrolidin-2-ones and method for preparing” (Arzneimittelwerk Dresden G.m.b.H., priority 1990, dated 1995)
